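Values below derive from 48-hour exposures of cells grown in 96-well plates, with endpoints linearly interpolated between the two concentrations bracketing the appropriate inhibition level. GI50 marks 50% less growth.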 Activity calls are given as the source filed them. Cut-off read from the data, not from the text of the source: active = GI50 up to about 1.1 µM and inactive = higher.
Columns and labels:
Experiment in all cases: DTP human tumour cell line panel, 48 h
[1] = test system: A549
[2] = test system: Hs-578T
[3] = test system: LOX IMVI
[4] = test system: MDA-MB-435
[5] = test system: HCT-116
[6] = test system: K562
[7] = test system: SW-620
[8] = test system: SF-539
[9] = test system: M14
[10] = test system: HCT-15
[11] = test system: NCI-H23
[12] = test system: T47D
[13] = test system: HOP-92
[14] = test system: SK-MEL-28
[15] = test system: HOP-62
[16] = test system: SF-295
[17] = test system: NCI/ADR-RES
[18] = test system: OVCAR-8
[19] = test system: SNB-75

SMILES	GI50 [1]	GI50 [2]	GI50 [3]	GI50 [4]	GI50 [5]	GI50 [6]	GI50 [7]	GI50 [8]	GI50 [9]	GI50 [10] [µM]	GI50 [11]	GI50 [12]	GI50 [13]	GI50 [14]	GI50 [15]	GI50 [16]	GI50 [17]	GI50 [18]	GI50 [19]
O=C(Nc1ccc(Cl)cc1)c1cc(S(=O)(=O)Nc2nc3cccnc3[nH]2)c(SSc2cc(Cl)c(C(=O)Nc3ccc(Cl)cc3)cc2S(=O)(=O)Nc2nc3cccnc3[nH]2)cc1Cl	> 100 µM (inactive)	> 100 µM (inactive)	> 100 µM (inactive)	> 100 µM (inactive)	> 100 µM (inactive)	3.86 µM (inactive)	> 100 µM (inactive)	> 100 µM (inactive)	> 100 µM (inactive)	> 100	> 100 µM (inactive)	> 100 µM (inactive)	> 100 µM (inactive)	> 100 µM (inactive)	> 100 µM (inactive)	> 100 µM (inactive)	> 100 µM (inactive)	> 100 µM (inactive)	> 100 µM (inactive)
COC(=O)C1C(=O)N(C)C(=O)N2CCCC12 (configuration not stated)	> 100 µM (inactive)	> 100 µM (inactive)	> 100 µM (inactive)	> 100 µM (inactive)	–	> 100 µM (inactive)	> 100 µM (inactive)	> 100 µM (inactive)	> 100 µM (inactive)	> 100	> 100 µM (inactive)	> 100 µM (inactive)	> 100 µM (inactive)	1.4 µM (inactive)	> 100 µM (inactive)	> 100 µM (inactive)	> 100 µM (inactive)	> 100 µM (inactive)	> 100 µM (inactive)
CS(=O)(=O)N1CC(CCl)c2ccc(NCCN)cc21 (configuration not stated)	> 100 µM (inactive)	27.2 µM (inactive)	> 100 µM (inactive)	> 100 µM (inactive)	83.2 µM (inactive)	> 100 µM (inactive)	> 100 µM (inactive)	72.6 µM (inactive)	> 100 µM (inactive)	> 100	53.7 µM (inactive)	> 100 µM (inactive)	26.3 µM (inactive)	> 100 µM (inactive)	14.8 µM (inactive)	–	> 100 µM (inactive)	57.5 µM (inactive)	17.1 µM (inactive)
CC(=O)/C=C1/C(=O)C(CC(C)C)=C1CC(C)C	> 100 µM (inactive)	> 100 µM (inactive)	> 100 µM (inactive)	> 100 µM (inactive)	> 100 µM (inactive)	–	> 100 µM (inactive)	> 100 µM (inactive)	> 100 µM (inactive)	> 100	> 100 µM (inactive)	> 100 µM (inactive)	> 100 µM (inactive)	> 100 µM (inactive)	> 100 µM (inactive)	> 100 µM (inactive)	> 100 µM (inactive)	> 100 µM (inactive)	> 100 µM (inactive)
COC(=O)CCCC(=O)C1=NN(c2ccc(Cl)cc2)Cc2ccccc2N1	96.4 µM (inactive)	68.4 µM (inactive)	> 100 µM (inactive)	> 100 µM (inactive)	> 100 µM (inactive)	> 100 µM (inactive)	> 100 µM (inactive)	> 100 µM (inactive)	> 100 µM (inactive)	95.1	> 100 µM (inactive)	5.56 µM (inactive)	> 100 µM (inactive)	> 100 µM (inactive)	60.5 µM (inactive)	> 100 µM (inactive)	79.4 µM (inactive)	56.4 µM (inactive)	88.3 µM (inactive)

— ChEMBL document CHEMBL1201862, “PubChem BioAssay data set” (2004)
